Laboratory results reported in US6077822A, “Drug salts” (Dumex-Alpharma A/S, priority 1993, dated 2000).

Legend:
[1] = cited from earlier work
[2] = increased gastric pH; cited from earlier work
[3] = dissolution, paddle method USP XXII apparatus II; format: physicochemical; conditions: 900 ml 0.1 N HCl; tablet with 150 mg salt; 5-60 minutes; FIG. 1
Method: The paddle method is used in accordance with USP XXII, p. 1579, (apparatus II), with 900 ml 0.1 N HCl. […] Samples are taken after 5, 10, 20, 30 and 60 minutes and diluted.
The samples are analyzed spectrophotometrically at 345.9 nm in a Shimadzu 160 A photometer.

CCO.C[C@H]1c2cccc(O)c2C(=O)C2=C(O)[C@]3(O)C(=O)C(C(N)=O)=C(O)[C@@H](N(C)C)[C@@H]3[C@@H](O)[C@@H]21.C[C@H]1c2cccc(O)c2C(=O)C2=C(O)[C@]3(O)C(=O)C(C(N)=O)=C(O)[C@@H](N(C)C)[C@@H]3[C@@H](O)[C@@H]21.Cl.Cl.O [doxycyclin hyclate, doxycyclin hydrochloride (hyclate)]
patients spontaneously reporting nausea and vomiting ([1]; 24/373 patients): 6.4%
patients reporting nausea and vomiting after questioning ([1]; 35/113 patients): 31%
frequency of nausea and vomiting relative to other antibiotics ([1]; in vivo): 3 fold
effect of increased pH of the stomach on bioavailability / dissociation and absorption [2]: independent of pH

C[C@H]1c2cccc(O)c2C(=O)C2=C(O)[C@]3(O)C(=O)C(C(N)=O)=C(O)[C@@H](N(C)C)[C@@H]3[C@@H](O)[C@@H]21.O [doxycyclin monohydrate]
effect of increased pH of the stomach on bioavailability / dissociation and absorption [2]: decreases the bioavailability

Doxycyclin Sucrose-octa-O-sulphonic Acid Salt [Example 2]
release versus time compared with Vibramycin [3]: delayed release characteristics are similar
